Assay results taken from patent US7718651B2, “Inhibitors of FtsZ and uses thereof” (priority 2002, dated 2010).

test system: M. tuberculosis H37Rv; assay: microbe, parasite or virus in culture; type: cell-based; settings: not given

SMILES	% Inh
CCOC(=O)Nc1cc2c(c(N)n1)N=C(c1ccccc1)[C@H](C)N2 [Compound A110]	43%
CCOC(=O)Nc1cc2c(c(N)n1)N=C(c1ccccc1)[C@H](C)N2 [Compound A129]	28%
CCOC(=O)Nc1cc(NCc2ccccc2)c(N)c(N)n1 [Compound A154]	12%

same assay, conditions: M. tuberculosis H37Rv, screen concentration 12.5 g/ml [sic], Table 8

SMILES	% Inh
CCOC(=O)Nc1cc(NCc2ccccc2)c2nc[nH]c2n1 [Compound A111]	43%
CCOC(=O)Nc1cc(N)c([N+](=O)[O-])c(N[C@H](C)C(=O)c2ccccc2)n1 [Compound A112]	42%
COC(=O)Nc1cc2c(c(N)n1)N=C(c1ccccc1)[C@H](C)N2 [Compound A113]	41%
CCOC(=O)Nc1cc2[nH]c(-c3ccc(OC)cc3)nc2c(N)n1 [Compound A114]	41%
CCOC(=O)Nc1cc(NCCC(O)c2ccccc2)c([N+](=O)[O-])c(N)n1 (stereo not drawn) [Compound A115]	41%
CCOC(=O)Nc1cc(NC(c2ccccc2)c2ccccc2)c(N)c(N)n1 [Compound A117]	40%
CCOC(=O)Nc1cc(NC(C)CCCN(CC)CC)c2ncc(-c3cc(OC)c(OC)c(OC)c3)nc2n1.Cl.Cl (stereo not drawn) [Compound A118]	40%
CCOC(=O)Nc1cc(NC(c2ccccc2)c2ccccc2)c2nc(-c3ccccc3)c(-c3ccccc3)nc2n1 [Compound A119]	36%
CCOC(=O)Nc1cc2c(nc(SCc3ccccc3)n2N)c(N)n1 [Compound A120]	34%
CCOC(=O)Nc1cc(Nc2ccc(Cl)cc2)c2nc(-c3ccc(Cl)cc3)c(-c3ccc(Cl)cc3)nc2n1 [Compound A121]	33%
CCOC(=O)Nc1cc(NCC(O)CN(C)c2ccc(Cl)cc2)c([N+](=O)[O-])c(N)n1 (stereo not drawn) [Compound A122]	31%
CCOC(=O)Nc1cc2ncc(C(=O)N(C)c3ccccc3)nc2c(N)n1 [Compound A123]	31%
CCOC(=O)Nc1cc2oc(-c3cc(OC)c(OC)c(OC)c3)nc2c(N(CCc2ccccc2)Cc2ccccc2)n1 [Compound A124]	31%
CCOC(=O)Nc1cc2[nH]c(-c3ccccc3)nc2c(N)n1 [Compound A125]	30%
CCOC(=O)Nc1cc(NCCc2ccc(S(N)(=O)=O)cc2)c([N+](=O)[O-])c(N)n1 [Compound A126]	30%
CCOC(=O)Nc1cc(NC/C(CN(C)c2ccccc2)=N/O)c([N+](=O)[O-])c(N)n1 [Compound A127]	30%
CCOC(=O)Nc1cc(NC(c2ccccc2)c2ccccc2)c([N+](=O)[O-])c(NC/C(=N/O)c2ccc(Cl)cc2)n1 [Compound A130]	28%
CCOC(=O)Nc1cc2c(c(N)n1)N=C(c1ccccc1OC)CO2 [Compound A131]	25%
CCOC(=O)Nc1cc2c(nc(SCc3ccccc3)n2/N=C/c2ccccc2)c(N)n1 [Compound A132]	24%
CCOC(=O)Nc1cc(NC(C)C(=O)COc2ccccc2)c([N+](=O)[O-])c(N)n1 (stereo not drawn) [Compound A133]	23%
CCOC(=O)Nc1cc(NC(c2ccccc2)c2ccccc2)c2nc(O)[nH]c2n1 [Compound A134]	23%
CCOC(=O)Nc1cc(NCC(=O)CCc2ccccc2)c([N+](=O)[O-])c(N)n1 [Compound A135]	22%
CCOC(=O)Nc1cc(NC/C(CCc2ccccc2)=N\O)c([N+](=O)[O-])c(N)n1 [Compound A136]	21%

SMILES	% Inh
CCOC(=O)Nc1cc2oc(-c3ccc(Cl)cc3)nc2c(N(CCc2ccccc2)Cc2ccccc2)n1 [Compound A137]	21%
CCOC(=O)Nc1cc2c(c(N)n1)N=C(CN(C)c1ccc(OC)cc1)CN2 [Compound A138]	20%
CCOC(=O)Nc1cc(NC(C)C(=O)c2ccc3c(c2)OCO3)c([N+](=O)[O-])c(N)n1 (stereo not drawn) [Compound A140]	19%
CCOC(=O)Nc1cc(N)c2nc(-c3ccccc3)c(N)nc2n1 [Compound A141]	19%
CCOC(=O)Nc1cc(N)c([N+](=O)[O-])c(NC(c2ccccc2)c2ccccc2)n1 [Compound A142]	18%
CCOC(=O)Nc1cc(NCC(=O)CN(C)c2ccccc2)c([N+](=O)[O-])c(N)n1 [Compound A143]	17%
CCOC(=O)Nc1cc(NC(C)/C(=N/O)c2ccc(NC)cc2)c([N+](=O)[O-])c(N)n1 (stereo not drawn) [Compound A144]	16%
CCOC(=O)Nc1cc2[nH]c(-c3ccc(C)cc3)nc2c(N(CCc2ccccc2)Cc2ccccc2)n1 [Compound A145]	16%
CCOC(=O)Nc1cc(N)c2ncc(-c3cc(OC)c(OC)c(OC)c3)nc2n1 [Compound A147]	15%
CCOC(=O)Nc1cc(N)c2nc(-c3ccccc3)cnc2n1 [Compound A148]	14%
CCOC(=O)Nc1cc(NC(C)/C(=N/O)c2ccc(O)cc2)c([N+](=O)[O-])c(N)n1 (stereo not drawn) [Compound A149]	14%
CCOC(=O)Nc1nc(NC(=O)OCC)c([N+](=O)[O-])c(NC(C)/C(=N\O)c2ccccc2)c1[N+](=O)[O-] (stereo not drawn) [Compound A150]	14%
CCOC(=O)Nc1cc2[nH]c(-c3ccc4c(c3)OCO4)nc2c(N(CCc2ccccc2)Cc2ccccc2)n1 [Compound A151]	14%
CCOC(=O)Nc1cc2[nH]c(-c3ccc(O)cc3)nc2c(N)n1 [Compound A152]	13%
CCOC(=O)Nc1cc(NC(C)C(O)COc2ccccc2)c([N+](=O)[O-])c(N)n1 (stereo not drawn) [Compound A155]	11%
CCOC(=O)Nc1cc(N)c(N)c(N)n1 [Compound A156]	10%
CCOC(=O)Nc1cc2c(c(N)n1)N=C(c1ccc(OC)cc1)CS2 [Compound A158]	10%
CCOC(=O)Nc1cc2ncc(-c3ccccc3)nc2c(NC(C)=O)n1 [Compound A159]	10%
CCCCNC(=O)Oc1ccc(C2=Nc3c(cc(NC(=O)OCC)nc3N)N[C@H]2C)cc1 [Compound A160]	10%
CCOC(=O)Nc1cc(NC(C)C(=O)c2ccccc2)c([N+](=O)[O-])c(N)n1 (stereo not drawn) [Compound A161]	9%
CCOC(=O)Nc1cc(N)c([N+](=O)[O-])c(N)n1 [Compound A162]	8%
CCOC(=O)Nc1cc(NC(C)C(O)c2ccc3c(c2)OCO3)c([N+](=O)[O-])c(N)n1 (stereo not drawn) [Compound A163]	8%
CCOC(=O)Nc1cc2c(c(N)n1)N=C(c1ccc(O)cc1)[C@H](C)N2 [Compound A164]	8%

SMILES	% Inh
COC(=O)Nc1cc(Cl)c([N+](=O)[O-])c(NC(=O)OC)n1 [Compound A165]	8%
CCOC(=O)Nc1cc2c(c(N)n1)N=C(c1ccc(O)cc1)[C@@H](C)N2 [Compound A166]	8%
CCOC(=O)Nc1cc2c(c(N)n1)N=C(c1cccc(N)c1)C(C)N2 (stereo not drawn) [Compound A167]	7%
CCOC(=O)Nc1cc(NCC(O)CN(C)c2ccccc2)c(N)c(NC(=O)OCC)n1 (stereo not drawn) [Compound A169]	7%
CCOC(=O)Nc1cc2c(c(N)n1)N=C(c1ccc(O)cc1)[C@H](C)N2 [Compound A170]	7%
CCCCNC(=O)Oc1ccc(C2=Nc3c(cc(NC(=O)OCC)nc3N)N[C@@H]2C)cc1 [Compound A171]	7%
CCOC(=O)Nc1cc(NC(C)/C(=N/O)c2ccccc2)c([N+](=O)[O-])c(N)n1 (stereo not drawn) [Compound A172]	5%
CCOC(=O)Nc1cc(N[C@H](C)[C@H](O)c2ccc(O)cc2)c([N+](=O)[O-])c(N)n1 [Compound A173]	5%
CCCCC(Nc1cc(NC(=O)OCC)nc(N)c1N)C(C)O (stereo not drawn) [Compound A174]	5%
CCOC(=O)Nc1cc(NC(c2ccccc2)c2ccccc2)c([N+](=O)[O-])c(NC(=O)OCC)n1 [Compound A175]	5%
COC(=O)Nc1cc(NC(C)/C(=N/O)c2ccccc2)c([N+](=O)[O-])c(N)n1 (stereo not drawn) [Compound A176]	4%
COC(=O)Nc1cc(NC(C)/C(=N/O)c2cccc([N+](=O)[O-])c2)c([N+](=O)[O-])c(N)n1 (stereo not drawn) [Compound A177]	4%
CCOC(=O)Nc1cc(N[C@@H](C)[C@@H](O)c2ccc(O)cc2)c([N+](=O)[O-])c(N)n1 [Compound A178]	4%
CCOC(=O)Nc1cc(NC(C)C(O)c2ccc(O)cc2)c(N)c(N)n1 (stereo not drawn) [Compound A179]	4%
CCCCC(=O)C(C)Nc1cc(NC(=O)OC)nc(N)c1[N+](=O)[O-] (stereo not drawn) [Compound A180]	3%
CCCCC(O)C(C)Nc1cc(NC(=O)OCC)nc(N)c1N (stereo not drawn) [Compound A181]	3%
CCOC(=O)Nc1cc(NC/C(=N/O)c2ccc(OC)cc2)c([N+](=O)[O-])c(N)n1 [Compound A182]	2%
CCOC(=O)Nc1cc(NC(C)C(=O)c2ccc(O)cc2)c([N+](=O)[O-])c(N)n1 (stereo not drawn) [Compound A183]	2%
CCOC(=O)Nc1cc(Cl)cc(NC(=O)OCC)n1 [Compound A185]	2%
CCOC(=O)Nc1cc(NC(C)/C(=N/O)c2ccc(O)cc2)c([N+](=O)[O-])c(N)n1 (stereo not drawn) [Compound A186]	1%
CCOC(=O)Nc1cc(Cl)c2ncc(-c3ccc(Cl)cc3)nc2n1 [Compound A187]	1%
O=C(Nc1cc(Cl)cc(NC(=O)OCc2ccccc2)n1)OCc1ccccc1 [Compound A188]	1%
CCOC(=O)Nc1cc2c(c(N)n1)N=C(c1cccc(OC)c1)CO2 [Compound A190]	0%
